The test system of experiment [1] is E-cadherin and Vimentin in MDA-MB-231 cells. In words: E-cadherin Luciferase activity / immunocytochemical analysis (ICC). In kind it is cell-based, human. The text has this:
Thus, taking the MDA-MB-231 cell as an example, the expression results of E-cadherin and Vimentin in the cell were observed. FIG. 6 is a quantitative analysis diagram showing Luciferase activity of E-cadherin obtained from a primary antibody E-cadherin by an immunocytochemical analysis (ICC). In FIG. 6, a transformed cell strain only including an empty vector (pC3.1) is the negative control, and a cell strain including no compound II is the background control, the translational activity is defined as 100%. ICC includes embedding the tumor cells in paraffin and slicing the embedded cells into slides having a thickness of […] by a slicer, deparaffinizing, rehydrating and renaturating, picking the slide out and putting the slide into the primary antibody E-cadherin; reacting for 1.5 h and washing the slide for three times with PBS, reacting with the secondary antibody for 30 min and washing the slide for three times with PBS, staining the slide with 3′,3′-diaminobenzendine (DAB) at a ratio of 1:30, and the slide was mounted with Entellanz.

Experiment [2] has as its system ROS content in breast tumor cells MDA-MB-231. The experiment can be described thus: intracellular reactive oxygen species method. In kind it is cell-based, human. The protocol: In FIG. 12, the reactive oxygen species method was used to detect the effect of increased treatment doses of the compound II on the ROS content in breast tumor cells, and a photograph was taken at a 200× field under the fluorescence microscope. In the intracellular reactive oxygen species method, the cells were planted in a 24-well plate (5×10^4 cells/well). The next day after the cells were adhered to the wall, the cells were cultured in a serum free DMEM culture medium at an atmosphere of 5% CO2 in an incubator at 37° C. for 12 h. The compound II was added into the 1% FBS-DMEM culture medium, and the cells were cultured in the culture medium for 2 h. The cells were then washed with PBS. 100 ng/mL LPS was added to react with the cells, and then the cells were washed with PBS. Culture medium including 10 μM fluorescent probe (DCFH2-DA) was supplied and then the cells were cultured for 30 min at 37° C. The cells were washed with PBS for three times so as to remove the residual stain. Finally the cells were lysed using 0.25% Tritox-100. The absorbance was measured by a fluorescence spectrometer, where the excitation wavelength was set as 485±20 nm, and the […] was set as 530±25 nm.

Experiment [3] has as its system human normal breast cells MCF-10A stimulated by TNF-α/TGF-β. In words: F-actin immunofluorescence staining (cell morphology). In kind it is cell-based. As to conditions: 2 μM with TNF-α/TGF-β 10 ng/ml, 24 h. The source says: FIG. 5 illustrates photographs taken at a 200× field under a fluorescence microscope, where a primary antibody F-actin is used and the cells are stained through the immunofluenrence staining method. Specifically, the photographs noted as “Control” in the first column show the morphologies of the human normal breast cells MCF-10A without being treated with the compound I and TNF-α/TGF-β. The photographs noted as “TNF-αTGF-β” in the second column show the morphologies of the human normal breast cells MCF-10A treated with TNF-α/TGF-β wherein the concentrations of TNF-α and TGF-β were 10 ng/ml. The photographs noted as “Compound I (2 μM)” in the third column show the morphologies of the human normal breast cells MCF-10A treated with the compound I having a concentration of 2 μM. The photographs noted as “TNF-α/TGF-β Compound I (2 μM)” in the fourth column show the morphologies of the human normal breast cells MCF-10A treated with the compound I, TNF-α and 10 TGF-β for 24 h, wherein the concentrations of the compound I, TNF-α and 10 TGF-β were 2 μM, 10 ng/ml and 10 ng/ml, respectively.

With `COC1=C(OC)C(=O)C(C)=C(C)C1=O` [compound II], in experiment [1] (MDA-MB-231), the expression of vimentin result is “inhibit expression of vimentin”. For the same compound, the “expression amount of E-cadherin in the cytoplasm” value in experiment [1] (MDA-MB-231, with dose increasing, FIG. 6) is on record as “increased”. Also, the “increasing trend of reactive oxygen species” value in experiment [2] (MDA-MB-231, with antioxidant NAC added at the same time) is recorded as “not obvious”. Moreover, the “content of reactive oxygen species” value in experiment [2] (MDA-MB-231, with increasing treatment doses) was “increased accordingly”.

As for `COC1=C(OC)C(=O)C(C)=CC1=O` [compound I], in experiment [3], the “cell morphology (F-actin staining)” value is recorded as “still was epithelial-like”.
